Numbered stars: 1 amine (or outer) side, 2 acyl side, 3 side chain; on linkers, the order of the positions; unused ones are H or OH. Peptide text beside a SMILES is read from it. * marks the point of attachment. C20 diacid = O=C(O)CCCCCCCCCCCCCCCCCCC(=O)*; C18 diacid = O=C(O)CCCCCCCCCCCCCCCCC(=O)*; γGlu = O=C(O)[C@H](CCC(=O)[*:2])N[*:1]; AEEA = NCCOCCOCC(=O)O
Assay: Assay (IV) determination of solubility
Assay type: physicochemical
Method: Assay (IV)—Determination of Solubility
The mimylin peptide was dissolved in water at ˜500 nmol/ml and mixed 1:1 with a series of buffers (100 mM glycylglycine pH 3.0, 100 mM glycylglycine pH 4.0, 100 mM glycylglycine pH 5.0, 100 mM bistrispropane pH 6.0, 100 mM bistrispropane pH 6.5, 100 mM bistrispropane pH 7.0, 100 mM bistrispropane pH 7.5, 100 mM bistrispropane pH 8.0).

Measured: Solubility

CC(C)C[C@H](NC(=O)[C@H](CCCNC(=N)N)NC(=O)CNC(=O)[C@H](CC(C)C)NC(=O)[C@@H](NC(=O)[C@H](C)NC(=O)[C@@H](NC(=O)[C@@H](NC(=O)[C@H](CC(C)C)NC(=O)[C@H](CCC(=O)O)NC(=O)[C@H](CO)NC(=O)[C@H](C)NC(=O)CC[C@H](NC(=O)CCCCCCCCCCCCCCCCC(=O)O)C(=O)O)[C@@H](C)O)[C@@H](C)O)C(C)C)C(=O)N[C@@H](CCC(=O)O)C(=O)N[C@@H](C)C(=O)N[C@@H](CCC(=O)O)C(=O)N[C@@H](CC(C)C)C(=O)N[C@@H](Cc1cnc[nH]1)C(=O)N[C@@H](CCC(=O)O)C(=O)N[C@@H](CC(C)C)C(=O)N[C@H](C(=O)N[C@H](C(=O)N[C@@H](CC(C)C)C(=O)N1CCC[C@H]1C(=O)N[C@@H](CCCNC(=N)N)C(=O)N[C@H](C(=O)N[C@@H](CCC(=O)O)C(=O)N[C@H](C(=O)NCC(=O)N[C@H](C(=O)NCC(=O)N[C@H](C(=O)N1CCC[C@H]1C(N)=O)[C@@H](C)O)[C@@H](C)O)[C@@H](C)O)[C@@H](C)O)[C@@H](C)O)[C@@H](C)O [compound 106, [N-terminal(C18 diacid-gGlu), des1, 6T, 9V, 14E, 21T, 30T, 31G, 32T]mimylin] ({C18 diacid-γGlu}-ASELTTAVLGRLEAELHELTTLPRTETGTGTP-NH2)
≧200 μM: pH 3.0 | pH 4.0 | pH 5.0 | pH 6.0 | pH 6.5 | pH 7.0 | pH 7.5 | pH 8.0

CC(C)C[C@H](NC(=O)[C@H](C)NC(=O)[C@H](C)NC(=O)[C@@H](NC(=O)[C@H](CO)NC(=O)[C@H](CC(C)C)NC(=O)[C@H](CCC(=O)O)NC(=O)[C@H](CO)NC(=O)[C@H](C)NC(=O)CC[C@H](NC(=O)CCCCCCCCCCCCCCCCCCC(=O)O)C(=O)O)[C@@H](C)O)C(=O)NCC(=O)N[C@@H](CCCNC(=N)N)C(=O)N[C@@H](CC(C)C)C(=O)N[C@@H](CO)C(=O)N[C@@H](C)C(=O)N[C@@H](CCC(=O)O)C(=O)N[C@@H](CC(C)C)C(=O)N[C@@H](Cc1cnc[nH]1)C(=O)N[C@@H](CCC(=O)O)C(=O)N[C@@H](CC(C)C)C(=O)N[C@@H](C)C(=O)N[C@H](C(=O)N[C@@H](CC(C)C)C(=O)N1CCC[C@H]1C(=O)N[C@@H](CCCNC(=N)N)C(=O)N[C@H](C(=O)N[C@@H](CCC(=O)O)C(=O)N[C@H](C(=O)NCC(=O)N[C@@H](CO)C(=O)NCC(=O)N[C@@H](CO)C(=O)NCC(N)=O)[C@@H](C)O)[C@@H](C)O)[C@@H](C)O [compound 64, [N-terminal(C20 diacid-gGlu), des1, 30S, 31G, 33G]mimylin] ({C20 diacid-γGlu}-ASELSTAALGRLSAELHELATLPRTETGSGSG-NH2)
≧200 μM: pH 3.0 | pH 4.0 | pH 5.0 | pH 6.0 | pH 6.5 | pH 7.0 | pH 7.5 | pH 8.0

CC(C)C[C@H](NC(=O)[C@H](C)NC(=O)[C@H](C)NC(=O)[C@@H](NC(=O)[C@H](CO)NC(=O)[C@H](CC(C)C)NC(=O)[C@H](CCC(=O)O)NC(=O)[C@H](CO)NC(=O)[C@H](C)NC(=O)CC[C@H](NC(=O)CCCCCCCCCCCCCCCCC(=O)O)C(=O)O)[C@@H](C)O)C(=O)NCC(=O)N[C@@H](CCCNC(=N)N)C(=O)N[C@@H](CC(C)C)C(=O)N[C@@H](CO)C(=O)N[C@@H](C)C(=O)N[C@@H](CCC(=O)O)C(=O)N[C@@H](CC(C)C)C(=O)N[C@@H](Cc1cnc[nH]1)C(=O)N[C@@H](CCC(=O)O)C(=O)N[C@@H](CC(C)C)C(=O)N[C@@H](C)C(=O)N[C@H](C(=O)N[C@@H](CC(C)C)C(=O)N1CCC[C@H]1C(=O)N[C@@H](CCCNC(=N)N)C(=O)N[C@H](C(=O)N[C@@H](CCC(=O)O)C(=O)N[C@H](C(=O)NCC(=O)N[C@@H](CO)C(=O)N1CCC[C@H]1C(=O)N[C@@H](CO)C(=O)N1CCC[C@H]1C(N)=O)[C@@H](C)O)[C@@H](C)O)[C@@H](C)O [compound 35, [N-terminal(C18 diacid-gGlu), des1, 30S, 31P]mimylin] ({C18 diacid-γGlu}-ASELSTAALGRLSAELHELATLPRTETGSPSP-NH2)
≧200 μM: pH 3.0 | pH 4.0 | pH 5.0 | pH 6.0 | pH 6.5 | pH 7.0 | pH 7.5 | pH 8.0

CC(C)C[C@H](NC(=O)[C@H](CCC(=O)O)NC(=O)[C@H](Cc1cnc[nH]1)NC(=O)[C@H](CC(C)C)NC(=O)[C@H](CCC(=O)O)NC(=O)[C@H](C)NC(=O)[C@H](CO)NC(=O)[C@H](CC(C)C)NC(=O)[C@H](CCCNC(=N)N)NC(=O)CNC(=O)[C@H](CC(C)C)NC(=O)[C@@H](NC(=O)[C@H](C)NC(=O)[C@@H](NC(=O)[C@H](CO)NC(=O)[C@H](CC(C)C)NC(=O)[C@@H]1CCCN1C(=O)[C@@H]1CCCN1C(=O)[C@H](C)NC(=O)[C@H](CCC(=O)O)NC(=O)CCCCCCCCCCCCCCCCC(=O)O)[C@@H](C)O)C(C)C)C(=O)N[C@@H](C)C(=O)N[C@H](C(=O)N[C@@H](CC(C)C)C(=O)N1CCC[C@H]1C(=O)N[C@@H](CCCNC(=N)N)C(=O)N[C@H](C(=O)N[C@@H](CCC(=O)O)C(=O)N[C@H](C(=O)NCC(=O)N1CCC[C@H]1C(=O)N[C@@H](CCC(=O)O)C(=O)N[C@@H](CO)C(=O)N1CCC[C@H]1C(N)=O)[C@@H](C)O)[C@@H](C)O)[C@@H](C)O [compound 38, [N-terminal(C18 diacid), 3P, 4P, 9V]mimylin] ({C18 diacid}-EAPPLSTAVLGRLSAELHELATLPRTETGPESP-NH2)
≧200 μM: pH 3.0 | pH 4.0 | pH 5.0 | pH 6.0 | pH 6.5 | pH 7.0 | pH 7.5 | pH 8.0

CC(C)C[C@H](NC(=O)[C@H](C)NC(=O)[C@H](C)NC(=O)[C@@H](NC(=O)[C@H](CO)NC(=O)[C@H](CC(C)C)NC(=O)[C@H](CCC(=O)O)NC(=O)[C@H](CO)NC(=O)[C@H](C)NC(=O)CC[C@H](NC(=O)CCCCCCCCCCCCCCCCCCC(=O)O)C(=O)O)[C@@H](C)O)C(=O)NCC(=O)N[C@@H](Cc1cnc[nH]1)C(=O)N[C@@H](CC(C)C)C(=O)N[C@@H](CO)C(=O)N[C@@H](C)C(=O)N[C@@H](CCC(=O)O)C(=O)N[C@@H](CC(C)C)C(=O)N[C@@H](Cc1cnc[nH]1)C(=O)N[C@@H](CCC(=O)O)C(=O)N[C@@H](CC(C)C)C(=O)N[C@@H](C)C(=O)N[C@H](C(=O)N[C@@H](CC(C)C)C(=O)N1CCC[C@H]1C(=O)N[C@@H](Cc1cnc[nH]1)C(=O)N[C@H](C(=O)N[C@@H](CCC(=O)O)C(=O)N[C@H](C(=O)NCC(=O)N[C@H](C(=O)NCC(=O)N[C@H](C(=O)N1CCC[C@H]1C(N)=O)[C@@H](C)O)[C@@H](C)O)[C@@H](C)O)[C@@H](C)O)[C@@H](C)O [compound 93, [N-terminal(C20 diacid-gGlu), des1, 12H, 25H, 30T, 31G, 32T]mimylin] ({C20 diacid-γGlu}-ASELSTAALGHLSAELHELATLPHTETGTGTP-NH2)
≧200 μM: pH 3.0 | pH 4.0 | pH 5.0 | pH 6.0 | pH 6.5 | pH 7.0 | pH 7.5 | pH 8.0

CC(C)C[C@H](NC(=O)[C@H](C)NC(=O)[C@H](C)NC(=O)[C@@H](NC(=O)[C@H](CO)NC(=O)[C@H](CC(C)C)NC(=O)[C@H](CCC(=O)O)NC(=O)[C@H](CO)NC(=O)[C@H](C)NC(=O)COCCOCCNC(=O)COCCOCCNC(=O)COCCOCCNC(=O)COCCOCCNC(=O)CC[C@H](NC(=O)CCCCCCCCCCCCCCCCCCC(=O)O)C(=O)O)[C@@H](C)O)C(=O)NCC(=O)N[C@@H](CCCNC(=N)N)C(=O)N[C@@H](CC(C)C)C(=O)N[C@@H](CO)C(=O)N[C@@H](C)C(=O)N[C@@H](CCC(=O)O)C(=O)N[C@@H](CC(C)C)C(=O)N[C@@H](Cc1cnc[nH]1)C(=O)N[C@@H](CCC(=O)O)C(=O)N[C@@H](CC(C)C)C(=O)N[C@@H](C)C(=O)N[C@H](C(=O)N[C@@H](CC(C)C)C(=O)N1CCC[C@H]1C(=O)N[C@@H](CCCNC(=N)N)C(=O)N[C@H](C(=O)N[C@@H](CCC(=O)O)C(=O)N[C@H](C(=O)NCC(=O)N[C@@H](CO)C(=O)NCC(=O)N[C@@H](CO)C(=O)N1CCC[C@H]1C(N)=O)[C@@H](C)O)[C@@H](C)O)[C@@H](C)O [compound 44, [N-terminal(C20 diacid-gGlu-4xOEG), des1, 30S, 31G]mimylin] ({C20 diacid-γGlu-AEEA-AEEA-AEEA-AEEA}-ASELSTAALGRLSAELHELATLPRTETGSGSP-NH2)
≧200 μM: pH 3.0 | pH 4.0 | pH 5.0 | pH 6.0 | pH 6.5 | pH 7.0 | pH 7.5 | pH 8.0

From patent publication US9593149B2, “Amylin and calcitonin receptor agonist” (Novo Nordisk A/S, priority 2014, dated 2017)
